Laboratory results from US20220127297A1, “Novel Antibacterial 3"-Derivatives Of 4,6-Disubstituted 2,5-Dideoxystreptamine Aminoglycoside Antibiotics” (AGILeBiotics B.V., priority 2018, published 2022).
Values after ≈ are worked out from the molar mass of the structure shown.

What was measured:
[1] = system: P. aeruginosa ATCC 27853; assay: MIC 90, broth micro-dilution, ATCC strains; format: cell-based, Pseudomonas aeruginosa; details: Pseudomonas aeruginosa, ATCC27853, read-out: MIC 90
Source text: (§1) 3.3 Protocol for MIC Determination (ATCC Strains)
(§2) Tested reference compounds. Amikacin sulfate (Cat. No. 01693, Chem-Impex), Gentamicin sulfate (Cat. No. G4918, Sigma Aldrich), Azithromycin (Cat. No. 1046056, USP), Ceftazidime Pentahydrate (Cat. No. 1098130, USP), Ciprofloxacin (Cat. No. 1134313, USP), Meropenem (Cat. No. 1392454, USP), Rifampicin (Cat. No. R0079, TCI), Tobramycin (Cat. No. 1667508, USP), Vancomycin (Cat. No. 1709007 USP).
(§3) Microbial strains. Staphylococcus aureus ATCC 29213, Staphylococcus aureus ATCC BAA-1717, Escherichia coli ATCC BAA-1025, Klebsiella pneumoniae ATCC BAA-1705, Klebsiella pneumoniae ATCC BAA-2524, Pseudomonas aeruginosa ATCC 27853, Pseudomonas aeruginosa ATCC BAA-2108, Acinetobacter baumannii ATCC BAA-1800.
(§4) Culture media and equipment. BBL™ Mueller Hinton Broth (REF 275730, Lot. 7009699, Becton Dickinson), Mueller Hinton Agar 2 (Ref. No. 97580-500G-F, Lot. No. BCBV4646, Sigma), Dulbecco's Modified Eagle's Medium (DMEM) (Cat. No. 41966-029, Gibco), Minimum Essential Medium (MEM) (Cat. No. 42360-024, Gibco), Fetal bovine serum (FBS) (Cat. No. F7524, Sigma), Non-essential amino acids (NEAA) (100×, Cat. No. 11140-035, Gibco), Sodium Pyruvate (100 mM, 100×, Cat. No. 11360-039, Gibco), Staurosporine (Cat. No. B50188, Biotrend), Cellstar 96-well plates U-bottom (Cat. No. 650180, Lot. No. E14123EB, Greiner Bio-one), CellTiter-Glo (Cat. No. G7573, Promega), 96-well plate V-bottom (Cat. No. 651201, Greiner), 96-well clear plate, U-bottom, (Cat. No. 650180, Greiner), 96-well white plate with clear bottom (Cat. No. 655098, Greiner), 96-well deep well plate 1 mL (Cat. No. 278606, Nunc), Sodium Pyruvate (100 mM, 100×, Gibco, Cat #11360-039), Incubator (Binder), Laminar flow (Thermo Scientific), BioPhotometer (Eppendorf); DEN-1B (McFarland Densitometer, Biosan); McFarland standards (polymer microparticle suspension, Biosan).
(§5) Compound preparation. The test compounds and reference antibiotics were prepared according to CLSI guidelines (Clinical and Laboratory Standards Institute (CLSI); Methods for dilution antimicrobial susceptibility tests for bacteria that grow aerobically; approved standard—ninth edition, M07-A9, Vol. 32, No. 2, 2012) as 5 mg/mL stock solutions in DMSO. Out of these DMSO solutions, 43.5 μL was transferred to 1656.5 μL of MH media in a deep well plate. Out of these working solutions 100 μL was transferred to wells in the third column of 96-well plates. Plates were previously filled with 50 μL of MH media in all wells except for the wells in the third column. After compound and antibiotic addition, 50 μL was transferred from the third to the fourth column, then from the fourth to the fifth and so on. In this manner, the compounds and antibiotics were plated in 96-well plate in serial two-fold dilutions giving a final concentration range of 64-0.125 μg/mL.
(§6) Preparation of microorganisms. Designations used for clinical isolates were from the Fidelta strain collection bank. Microorganisms used were all revived from skim milk storage at −70° C. by plating them on MH agar plates. The following day the single colony of each microorganism was again streaked on fresh agar plates. The next day, using the direct colony suspension method, broth solutions that achieve turbidity equivalent to 0.5 McFarland standard for each microorganism were prepared. […] Out of these suspensions, actual inoculums were prepared by diluting them 100× with MH media giving a final microorganism count of 2-8×10^5 CFU/mL. For each strain of microorganisms, 20 mL of these inoculum solutions were prepared. From the second to the twelfth column of 96-well plates, 50 μL of these solutions were transferred per well. To the first column, 50 μL per well of pure growth media was added. In this manner the first column was used as sterility control of media, the second column was used as control of microorganism's growth and the rest of the plate was used for MIC determination. All plates were incubated for 16-24 h at 37° C. […]

[2] = system: P. aeruginosa ATCC BAA-2108; assay: MIC 90, resistant ATCC strains of the ESKAPE panel; format: cell-based; details: Pseudomonas aeruginosa, ATCCBAA2108, MDR
Source text: as §1, §2, §3, §4, §5, §6

[3] = system: K. pneumoniae ATCC BAA-1705; assay: MIC 90, resistant ATCC strains of the ESKAPE panel; format: cell-based; details: Klebsiella pneumoniae, ATCCBAA1705, KPC
Source text: as §1, §2, §3, §4, §5, §6

[4] = system: K. pneumoniae ATCC BAA-2524; assay: MIC 90, resistant ATCC strains of the ESKAPE panel; format: cell-based; details: Klebsiella pneumoniae, ATCCBAA2524, OXA-48
Source text: as §1, §2, §3, §4, §5, §6

[5] = system: A. baumannii ATCC BAA-1800; assay: MIC 90, resistant ATCC strains of the ESKAPE panel; format: cell-based; details: Acinetobacter baumannii, ATCCBAA1800, MDR
Source text: as §1, §2, §3, §4, §5, §6

[6] = system: S. aureus ATCC BAA-1717; assay: MIC 90, resistant ATCC strains of the ESKAPE panel; format: cell-based; details: Staphylococcus aureus, MRSA
Source text: as §1, §2, §3, §4, §5, §6

[7] = system: E. coli ATCC BAA-1025 (= BL 21); assay: MIC 90, broth micro-dilution, ATCC strains; format: cell-based, Escherichia coli; details: Escherichia coli, ATCCBAA1025, read-out: MIC 90
Source text: as §1, §2, §3, §4, §5, §6

[8] = system: S. aureus ATCC 29213; assay: MIC 90, broth micro-dilution, ATCC strains; format: cell-based, Staphylococcus aureus; details: Staphylococcus aureus, ATCC29213, read-out: MIC 90
Source text: as §1, §2, §3, §4, §5, §6

N=C(NC[C@@H]1CCCN1)NC1[C@@H](O)C(OC2[C@@H](F)[C@H](O[C@H]3OC(CN)[C@@H](O)CC3N)C(N)C[C@H]2NC(=O)[C@@H](O)CCN)O[C@H](CO)[C@H]1O (stereo partly drawn) [ABX5026, Tobra-AHB-F-Gua (S) pyrrolidine-2-yl-methyl]
MIC90 [1]: 1 µM (≈ 0.696 µg/mL) | MIC90 [2]: 8 µg/mL (≈ 11.5 µM) | MIC90 [3]: 4 µg/mL (≈ 5.75 µM) | MIC90 [4]: 0.5 µg/mL (≈ 0.719 µM) | MIC90 [5]: 32 µg/mL (≈ 46 µM) | MIC90 [6]: 0.5 µg/mL (≈ 0.719 µM) | MIC90 [7]: 1 µM (≈ 0.696 µg/mL) | MIC90 [8]: 0.5 µM (≈ 0.348 µg/mL)

N=C(N)NC1C(O)[C@@H](CO)OC(OC2C(F)[C@H](O[C@H]3OC(CN)[C@@H](O)CC3N)C(N)C[C@H]2NC(=O)[C@@H](O)CCN)[C@@H]1O (stereo partly drawn) [ABX5006, Tobra-AHB-F-Gua]
MIC90 [1]: 0.25 µM (≈ 0.153 µg/mL) | MIC90 [2]: 4 µg/mL (≈ 6.53 µM) | MIC90 [3]: 2 µg/mL (≈ 3.26 µM) | MIC90 [4]: < 0.125 µg/mL | MIC90 [5]: 16 µg/mL (≈ 26.1 µM) | MIC90 [6]: 0.5 µg/mL (≈ 0.816 µM) | MIC90 [7]: 0.5 µM (≈ 0.306 µg/mL) | MIC90 [8]: 0.5 µM (≈ 0.306 µg/mL)

NCC[C@H](O)C(=O)N[C@@H]1C[C@H](N)[C@@H](O[C@H]2O[C@H](CN)[C@@H](O)[C@H](O)[C@H]2O)[C@H](O)[C@H]1O[C@H]1O[C@H](CO)[C@@H](O)[C@H](N)[C@H]1O [Amikacin, amikacin, reference compound]
MIC90 [1]: 1 µM (≈ 0.586 µg/mL) | MIC90 [2]: 16 µg/mL (≈ 27.3 µM) | MIC90 [3]: 32 µg/mL (≈ 54.6 µM) | MIC90 [4]: 0.5 µg/mL (≈ 0.854 µM) | MIC90 [5]: 64 µg/mL (≈ 109 µM) | MIC90 [6]: 4 µg/mL (≈ 6.83 µM) | MIC90 [7]: 2 µM (≈ 1.17 µg/mL) | MIC90 [8]: 4 µM (≈ 2.34 µg/mL)
